# Data as given in patent US6737383B1, “Herbicidal oxadiazolidines” (priority 1999, dated 2004).
# Assays:
# corn = assay: Test B pre/postemergence corn; assay type: in vivo, Zea mays
# How it was run: (§1)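 Herbicidal effect was estimated by eye on a ten-point control scale after plants spent twelve to sixteen days in a greenhouse following soil or foliar treatment. Foliar sprays targeted plants at one to four leaves; all doses were formulated in a non-phytotoxic solvent with surfactant.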
# surinam grass = assay: Test B pre/postemergence surinam grass; assay type: in vivo, Brachiaria decumbens
# How it was run: as §1
# velvetleaf = assay: Test B pre/postemergence velvetleaf; assay type: in vivo, Abutilon theophrasti
# How it was run: as §1
# giant foxtail = assay: Test B pre/postemergence giant foxtail; assay type: in vivo, Setaria faberii
# How it was run: as §1
# bamyardgrass = assay: Test B flood test barnyardgrass; assay type: in vivo, Echinochloa crus-galli
# How it was run: (§2)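 Flood test on plants grown to the 2-leaf stage; treated plants kept in greenhouse twelve to sixteen days, then visually rated against controls on a 0 (no effect) to 10 (complete control) scale.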
# blackgrass = assay: Test B pre/postemergence blackgrass; assay type: in vivo, Alopecurus myosuroides
# How it was run: as §1
# bedstraw = assay: Test B pre/postemergence bedstraw; assay type: in vivo, Galium aparine
# How it was run: as §1
# smallflower flatsedge = assay: Test B flood test smallflower flatsedge; assay type: in vivo, Cyperus difformis
# How it was run: as §2
# crabgrass = assay: Test B pre/postemergence crabgrass; assay type: in vivo, Digitaria sanguinalis
# How it was run: as §1
# pigweed = assay: Test B pre/postemergence pigweed; assay type: in vivo, Amaranthus retroflexus
# How it was run: as §1
# wheat = assay: Test B pre/postemergence wheat; assay type: in vivo, Triticum aestivum
# How it was run: as §1
# soybean = assay: Test B pre/postemergence soybean; assay type: in vivo, Glycine max
# How it was run: as §1
# cocklebur = assay: Test B pre/postemergence cocklebur; assay type: in vivo, Xanthium strumarium
# How it was run: as §1
# purple nutsedge = assay: Test B pre/postemergence purple nutsedge; assay type: in vivo, Cyperus rotundus
# How it was run: as §1
# wild oat = assay: Test B pre/postemergence wild oat; assay type: in vivo, Avena fatua
# How it was run: as §1
# morningglory = assay: Test B pre/postemergence morningglory; assay type: in vivo, Ipomoea hederacea
# How it was run: as §1
# sugar beet = assay: Test B pre/postemergence sugar beet; assay type: in vivo, Beta vulgaris
# How it was run: as §1
# duck salad = assay: Test B flood test duck salad; assay type: in vivo, Heteranthera limosa
# How it was run: as §2
# rape = assay: Test B pre/postemergence rape; assay type: in vivo, Brassica napus
# How it was run: as §1
# rice = assay: Test B flood test rice; assay type: in vivo, Oryza sativa
# How it was run: as §2
# [1] = Postemergence, Rate 62 g/ha, scale of 0 to 10, 0 is no effect, 10 is complete control
# [2] = Postemergence, Rate 125 g/ha, scale of 0 to 10 where 0 is no effect and 10 is complete control
# [3] = Postemergence, Rate 250 g/ha, scale of 0 to 10, 0 is no effect, 10 is complete control
# [4] = Postemergence, Rate 500 g/ha, scale of 0 to 10 where 0 is no effect and 10 is complete control
# [5] = Preemergence, Rate 62 g/ha, scale 0 to 10 (0 no effect, 10 complete control)
# [6] = Preemergence, Rate 125 g/ha, scale of 0 to 10 where 0 is no effect and 10 is complete control
# [7] = Preemergence, Rate 500 g/ha, scale of 0 to 10 where 0 is no effect and 10 is complete control
# [8] = Rate 62 g/ha, flood test species, Pre-emergence, visual evaluation after twelve to sixteen days
# [9] = Rate 125 g/ha, under heading Pre-emergence, flood test species, visual evaluation after twelve to sixteen days
# [10] = Rate 250 g/ha, Pre-emergence (flood test species), scale 0 to 10, 0 is no effect, 10 is complete control
# [11] = Rate 500 g/ha, Pre-emergence section of Table B, 0 to 10 scale (0 no effect, 10 complete control)
smiles,measurement,setting,value
CC(C)N(C(=O)n1oc(=O)n(CC(=O)N(C)C)c1=O)c1ccccc1 [Compound 588],Corn plant response rating,corn; [1],0
same,"Plant response rating, Corn",corn; [2],0
same,Corn plant response rating,corn; [3],0
same,"Plant response rating, Corn",corn; [4],0
same,Corn plant response rating,corn; [5],0
same,Corn plant response rating,corn; [6],0
same,Corn plant response rating (0 to 10 scale),"corn; Preemergence, Rate 250 g/ha",0
same,Corn plant response rating,corn; [7],5
same,B. signalgrass plant response rating,surinam grass; [1],0
same,"Plant response rating, B. signalgrass",surinam grass; [2],0
same,B. signalgrass plant response rating,surinam grass; [3],4
same,"Plant response rating, B. signalgrass",surinam grass; [4],8
same,B. signalgrass plant response rating,surinam grass; [5],0
same,B. signalgrass plant response rating,surinam grass; [6],1
same,"B. signalgrass plant response rating (0 to 10 scale, 0 is no effect, 10 is complete control)","surinam grass; Preemergence, Rate 250 g/ha",5
same,B. signalgrass plant response rating,surinam grass; [7],8
same,"Plant response rating, Velvetleaf",velvetleaf; [2],0
same,Velvetleaf plant response rating,velvetleaf; [3],0
same,"Plant response rating, Velvetleaf",velvetleaf; [4],7
same,Velvetleaf plant response rating,velvetleaf; [5],0
same,Velvetleaf plant response rating,velvetleaf; [6],0
same,Velvetleaf plant response rating,velvetleaf; [7],5
same,Giant foxtail plant response rating,giant foxtail; [1],0
same,"Plant response rating, Giant foxtail",giant foxtail; [2],4
same,Giant foxtail plant response rating,giant foxtail; [3],8
same,"Plant response rating, Giant foxtail",giant foxtail; [4],8
same,Giant foxtail plant response rating,giant foxtail; [5],7
same,Giant foxtail plant response rating,giant foxtail; [6],8
same,Giant foxtail plant response rating,giant foxtail; [7],10
same,"Plant response rating, Barnyardgrass (0 to 10 scale, 0 is no effect, 10 is complete control)",bamyardgrass; [8],0
same,"Barnyardgrass plant response rating (0 to 10 scale, 0 is no effect, 10 is complete control)",bamyardgrass; [9],0
same,Barnyardgrass plant response rating,bamyardgrass; [10],0
same,Barnyardgrass plant response rating,bamyardgrass; [11],0
same,Blackgrass plant response rating,blackgrass; [1],0
same,"Plant response rating, Blackgrass",blackgrass; [2],0
same,Blackgrass plant response rating,blackgrass; [3],6
same,"Plant response rating, Blackgrass",blackgrass; [4],8
same,Blackgrass plant response rating,blackgrass; [5],0
same,Blackgrass plant response rating,blackgrass; [6],3
same,Blackgrass plant response rating (0 to 10 scale),"blackgrass; Preemergence, Rate 250 g/ha",5
same,Blackgrass plant response rating,blackgrass; [7],8
same,Bedstraw plant response rating,bedstraw; [1],0
same,Bedstraw plant response rating (0 to 10 scale),"bedstraw; Preemergence, Rate 250 g/ha",0
same,"Plant response rating, S. Flatsedge (0 to 10 scale, 0 is no effect, 10 is complete control)",smallflower flatsedge; [8],0
same,"S. Flatsedge plant response rating (0 to 10 scale, 0 is no effect, 10 is complete control)",smallflower flatsedge; [9],0
same,S. Flatsedge plant response rating,smallflower flatsedge; [10],0
same,S. Flatsedge plant response rating,smallflower flatsedge; [11],0
same,Crabgrass plant response rating,crabgrass; [1],0
same,"Plant response rating, Crabgrass",crabgrass; [2],2
same,Crabgrass plant response rating,crabgrass; [3],6
same,Crabgrass plant response rating,crabgrass; [5],3
same,Crabgrass plant response rating,crabgrass; [6],6
same,Crabgrass plant response rating,crabgrass; [7],9
same,"Plant response rating, Redroot pigweed",pigweed; [2],0
same,Redroot pigweed plant response rating,pigweed; [3],0
same,"Plant response rating, Redroot pigweed",pigweed; [4],0
same,Redroot pigweed plant response rating,pigweed; [5],0
same,Redroot pigweed plant response rating,pigweed; [6],1
same,Redroot pigweed plant response rating,pigweed; [7],9
same,"Plant response rating, Wheat",wheat; [2],0
same,Wheat plant response rating,wheat; [3],0
same,"Plant response rating, Wheat",wheat; [4],3
same,Wheat plant response rating,wheat; [5],0
same,Wheat plant response rating,wheat; [6],2
same,Wheat plant response rating,wheat; [7],8
same,"Plant response rating, Soybean",soybean; [2],4
same,Soybean plant response rating,soybean; [3],4
same,"Plant response rating, Soybean",soybean; [4],7
same,Soybean plant response rating,soybean; [5],0
same,Soybean plant response rating,soybean; [6],0
same,Soybean plant response rating,soybean; [7],5
same,Cocklebur plant response rating,cocklebur; [1],0
same,"Plant response rating, Cocklebur",cocklebur; [2],0
same,Cocklebur plant response rating,cocklebur; [3],0
same,"Plant response rating, Cocklebur",cocklebur; [4],0
same,Cocklebur plant response rating,cocklebur; [5],0
same,Cocklebur plant response rating,cocklebur; [6],0
same,Cocklebur plant response rating (0 to 10 scale),"cocklebur; Preemergence, Rate 250 g/ha",0
same,Cocklebur plant response rating,cocklebur; [7],0
same,Nutsedge plant response rating,purple nutsedge; [1],0
same,"Plant response rating, Nutsedge",purple nutsedge; [2],0
same,"Plant response rating, Nutsedge",purple nutsedge; [4],0
same,Nutsedge plant response rating,purple nutsedge; [5],0
same,Nutsedge plant response rating,purple nutsedge; [6],0
same,Nutsedge plant response rating,purple nutsedge; [7],0
same,"Plant response rating, Wild oats",wild oat; [2],0
same,Wild oats plant response rating,wild oat; [3],0
same,"Plant response rating, Wild oats",wild oat; [4],0
same,Wild oats plant response rating,wild oat; [5],0
same,Wild oats plant response rating,wild oat; [6],0
same,Wild oats plant response rating,wild oat; [7],7
same,Morningglory plant response rating,morningglory; [1],7
same,"Plant response rating, Morningglory",morningglory; [2],7
same,Morningglory plant response rating,morningglory; [3],10
same,"Plant response rating, Morningglory",morningglory; [4],10
same,Morningglory plant response rating,morningglory; [5],0
same,Morningglory plant response rating,morningglory; [6],0
same,Morningglory plant response rating,morningglory; [7],0
same,"Plant response rating, Sugarbeets",sugar beet; [2],0
same,Sugarbeets plant response rating,sugar beet; [3],0
same,"Plant response rating, Sugarbeets",sugar beet; [4],0
same,Sugarbeets plant response rating,sugar beet; [5],0
same,Sugarbeets plant response rating,sugar beet; [6],0
same,Sugarbeets plant response rating,sugar beet; [7],6
same,"Plant response rating, Ducksalad (0 to 10 scale, 0 is no effect, 10 is complete control)",duck salad; [8],0
same,"Ducksalad plant response rating (0 to 10 scale, 0 is no effect, 10 is complete control)",duck salad; [9],0
same,Ducksalad plant response rating,duck salad; [10],0
same,Ducksalad plant response rating,duck salad; [11],0
same,Rape plant response rating,rape; [1],0
same,"Plant response rating, Rape",rape; [2],0
same,Rape plant response rating,rape; [3],0
same,"Plant response rating, Rape",rape; [4],0
same,Rape plant response rating,rape; [5],0
same,Rape plant response rating,rape; [6],0
same,Rape plant response rating,rape; [7],0
same,"Plant response rating, Rice (0 to 10 scale, 0 is no effect, 10 is complete control)",rice; [8],0
same,"Rice plant response rating (0 to 10 scale, 0 is no effect, 10 is complete control)",rice; [9],0
same,Rice plant response rating,rice; [10],0
same,Rice plant response rating,rice; [11],0
